Here are results for 18 molecules from PubChem BioAssay (NCI).

Among the test systems are TK-10 renal; OVCAR-5 ovarian; U251 CNS; MCF7 breast; SR leukemia; K-562 leukemia; OVCAR-4 ovarian; ACHN renal; NCI-H522 lung; MDA-N; SK-MEL-28 melanoma.
Common to all, as to assay: NCI-60 cell line screen, 48 h

Molecules are shown by their SMILES.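 Dose response: 5 concentrations. Exposure: 48 h. Format: 96-well plates. Endpoint: linear interpolation; highest concentration if not reached. At the TGI there is no net growth.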 Where only a bound is given, the exact number is not on record here.

For the molecule `COC(=O)C1(O)c2ccccc2N=C2C(=O)c3ccccc3N21` (stereo not given), the TGI in the experiment on TK-10 renal, in the experiment with OVCAR-5 ovarian, in the experiment with U251 CNS, in the experiment with MCF7 breast, in the experiment on SR leukemia and with K-562 leukemia was > 100 µM in each case. Besides, the TGI in the experiment on OVCAR-4 ovarian is > 100 µM; with ACHN renal it was > 100 µM; in the experiment on NCI-H522 lung it was > 100 µM; in the experiment with MDA-N it was 41.8 µM; with SK-MEL-28 melanoma, > 100 µM.
With `O=S1(=O)CCN(Cc2ccccc2)/C1=N\S(=O)(=O)c1ccc(Cl)cc1`, the TGI in the experiment on TK-10 renal was 31 µM; in the experiment with OVCAR-5 ovarian it was 33.4 µM; in the experiment with U251 CNS, 33.5 µM; in the experiment with MCF7 breast, 42.4 µM; in the experiment on SR leukemia it was 59.9 µM; with K-562 leukemia, > 100 µM. The TGI came to 36.2 µM with OVCAR-4 ovarian; 33.1 µM with ACHN renal; 29.9 µM in the experiment on NCI-H522 lung; 32.2 µM in the experiment on MDA-N; 32.8 µM in the experiment on SK-MEL-28 melanoma.
Take `CC1(C)OCC(C2OC(N3O[C@H](CI)C[C@@H]3c3ccccc3)C3OC(C)(C)OC23)O1` (stereo not given in full): the TGI with TK-10 renal, with OVCAR-5 ovarian, with U251 CNS, in the experiment on MCF7 breast, in the experiment on SR leukemia and with K-562 leukemia was > 100 µM throughout. The TGI in the experiment with OVCAR-4 ovarian, with ACHN renal, in the experiment with NCI-H522 lung, with MDA-N and in the experiment with SK-MEL-28 melanoma was > 100 µM throughout.
Regarding `CCCCCc1c2nc(c(CCCCC)c3ccc([nH]3)c(CCCCC)c3ccc([nH]3)c(CCCCC)c3nc1C=C3)C=C2`, the TGI in the experiment on TK-10 renal, in the experiment on OVCAR-5 ovarian, in the experiment with U251 CNS, in the experiment on MCF7 breast, in the experiment with SR leukemia and in the experiment on K-562 leukemia was > 100 µM in each case. Besides, the TGI in the experiment on OVCAR-4 ovarian, in the experiment on ACHN renal, in the experiment on NCI-H522 lung, in the experiment with MDA-N and in the experiment with SK-MEL-28 melanoma was > 100 µM throughout.
For the molecule `CC(C)(C)N1NC1C1NN1C(C)(C)C` (stereo not given), the TGI in the experiment with TK-10 renal, in the experiment with OVCAR-5 ovarian, in the experiment with U251 CNS, in the experiment on MCF7 breast, with SR leukemia and with K-562 leukemia was > 100 µM in each case. Further, the TGI in the experiment on OVCAR-4 ovarian, in the experiment on ACHN renal, in the experiment on NCI-H522 lung, in the experiment with MDA-N and with SK-MEL-28 melanoma was > 100 µM each time.
On to `CCCCCCCCCCCCCCCCP(=O)(O)OP(=O)(O)OCC1OC(n2cnc3c(N)ncnc32)C(O)C1O` (stereo not given), for which the TGI with TK-10 renal is 34.3 µM; in the experiment with OVCAR-5 ovarian, 29.2 µM; in the experiment on U251 CNS it was 41.1 µM; in the experiment on MCF7 breast, 45.7 µM; with SR leukemia, > 100 µM; with K-562 leukemia, > 100 µM. Also, the TGI was > 100 µM with OVCAR-4 ovarian; 62.1 µM in the experiment with ACHN renal; 41.7 µM with NCI-H522 lung; > 100 µM in the experiment on MDA-N; > 100 µM in the experiment with SK-MEL-28 melanoma.
Consider `CC(=O)CCC[C@@H](C)[C@@H]1O[C@H]([C@@]2(C)CCC(=O)O2)C[C@H]2C(CSc3ccccc3)C(=O)O[C@@H]12` (stereo not given in full), for which the TGI in the experiment on TK-10 renal was 25.6 µM; in the experiment on OVCAR-5 ovarian it was 32.4 µM; in the experiment with U251 CNS, 36.3 µM; in the experiment with MCF7 breast, 24.9 µM; in the experiment on SR leukemia it was > 100 µM; in the experiment on K-562 leukemia, > 100 µM. The TGI amounted to 31.8 µM in the experiment with OVCAR-4 ovarian; 28.9 µM in the experiment on ACHN renal; 15.2 µM in the experiment on NCI-H522 lung; 42.2 µM with MDA-N; 41.7 µM in the experiment with SK-MEL-28 melanoma.
As to `c1ccc2sc(C3(N4CCCCC4)CCCC3)cc2c1`, the TGI in the experiment on TK-10 renal turned out to be 28.5 µM; in the experiment on OVCAR-5 ovarian it was 24.7 µM; in the experiment with MCF7 breast it was 21.5 µM; in the experiment with SR leukemia, 22.3 µM; in the experiment on K-562 leukemia, 23.9 µM; in the experiment with OVCAR-4 ovarian, 23.7 µM. The TGI with ACHN renal was determined as 21 µM; in the experiment with NCI-H522 lung, 24.8 µM; in the experiment on MDA-N it was 35.1 µM; with SK-MEL-28 melanoma, 28.7 µM.
With `CC(=O)OCC1OC(O[C@@H]2c3c(O)c4c(c(O)c3C3=C(NN(c5ccc([N+](=O)[O-])cc5[N+](=O)[O-])[Se]3=O)[C@@]2(C)O)C(=O)c2ccccc2C4=O)C(OC(C)=O)C(OC(C)=O)C1OC(C)=O` (stereo not given in full), the TGI came to 2.05 µM in the experiment on TK-10 renal; 2.07 µM in the experiment on OVCAR-5 ovarian; 0.458 µM in the experiment on U251 CNS; 0.498 µM with MCF7 breast; 0.502 µM in the experiment on SR leukemia; 0.431 µM in the experiment with K-562 leukemia. Besides, the TGI turned out to be 0.634 µM with OVCAR-4 ovarian; 0.607 µM with ACHN renal; 0.29 µM in the experiment on NCI-H522 lung; 0.753 µM in the experiment with MDA-N; 1.02 µM in the experiment on SK-MEL-28 melanoma.
With `O=C1CCCc2cc3c(cc21)CCC3C(=O)O` (stereo not given), the TGI with TK-10 renal, with OVCAR-5 ovarian, with U251 CNS, with MCF7 breast, in the experiment with SR leukemia and with K-562 leukemia was > 100 µM in each case. For the same molecule, the TGI in the experiment on OVCAR-4 ovarian, with ACHN renal, in the experiment on NCI-H522 lung, in the experiment with MDA-N and in the experiment on SK-MEL-28 melanoma was > 100 µM each time.
As for `COc1cc2cc(C(=O)N3CC(CCl)c4ccc(NCCN)cc43)[nH]c2c(OC)c1OC` (stereo not given), the TGI in the experiment with TK-10 renal turned out to be 6.08 µM; with OVCAR-5 ovarian it was 6.03 µM; with MCF7 breast, 3.45 µM; in the experiment with SR leukemia, 38.8 µM; in the experiment with K-562 leukemia, 0.572 µM; with OVCAR-4 ovarian, 3.06 µM. In addition, the TGI with ACHN renal stood at 0.768 µM; in the experiment with NCI-H522 lung it was 0.542 µM; in the experiment with MDA-N it was 0.432 µM; in the experiment on SK-MEL-28 melanoma it was 1.4 µM.
Turning to `Cc1ccc(S(=O)(=O)NNC(=S)Nc2cccc3ccccc23)cc1`, the TGI with TK-10 renal, with OVCAR-5 ovarian, with U251 CNS, in the experiment with MCF7 breast, in the experiment on SR leukemia and in the experiment with K-562 leukemia was > 100 µM each time. Further, the TGI with OVCAR-4 ovarian was 66.8 µM; in the experiment on ACHN renal it was 79.9 µM; in the experiment with NCI-H522 lung, 46.6 µM; in the experiment on MDA-N it was > 100 µM; in the experiment with SK-MEL-28 melanoma it was > 100 µM.
Take `Cc1ccccc1N(C)S(=O)(=O)c1ccccc1[N+](=O)[O-]`: the TGI in the experiment with TK-10 renal, with OVCAR-5 ovarian, in the experiment on U251 CNS, with MCF7 breast, with SR leukemia and in the experiment on K-562 leukemia was > 100 µM each time. The TGI in the experiment with OVCAR-4 ovarian, with ACHN renal, with NCI-H522 lung, in the experiment on MDA-N and with SK-MEL-28 melanoma was > 100 µM throughout.
As to `COc1cc(-c2coc3c(OC)c(OC4OC(CO)C(O)C(O)C4O)c(OC)cc3c2=O)cc(OC)c1C` (stereo not given), the TGI in the experiment with TK-10 renal is > 70.3 µM; in the experiment on OVCAR-5 ovarian, 32.7 µM; with U251 CNS, > 34.6 µM; with MCF7 breast it was 25.8 µM; in the experiment on SR leukemia, > 100 µM; in the experiment on K-562 leukemia it was > 70.4 µM. The TGI in the experiment on OVCAR-4 ovarian is 63.2 µM; with ACHN renal it was 30 µM; in the experiment with NCI-H522 lung, 11.1 µM; with MDA-N, 46.7 µM; with SK-MEL-28 melanoma, > 28.4 µM.
With `CC1NC(/C(=C/c2ccccc2O)NC(=O)c2ccccc2)OC1=O` (stereo not given), the TGI in the experiment on TK-10 renal, in the experiment on OVCAR-5 ovarian, with U251 CNS, in the experiment on MCF7 breast, in the experiment with SR leukemia and with K-562 leukemia was > 50 µM in each case. The TGI with OVCAR-4 ovarian, in the experiment with ACHN renal, with NCI-H522 lung, in the experiment with MDA-N and with SK-MEL-28 melanoma was > 50 µM throughout.
With `Cc1c2c(n(CCc3ccccc3)c1C)NN=C(C#N)S2(=O)=O`, the TGI in the experiment with TK-10 renal, with OVCAR-5 ovarian, in the experiment on U251 CNS, in the experiment with MCF7 breast, in the experiment on SR leukemia and in the experiment on K-562 leukemia was > 100 µM in each case. In addition, the TGI with OVCAR-4 ovarian, in the experiment on ACHN renal, in the experiment with NCI-H522 lung, in the experiment on MDA-N and in the experiment on SK-MEL-28 melanoma was > 100 µM throughout.
With `CC(C)/C=N\n1c(N)c(C#N)c(C#N)c1C(C)C`, the TGI in the experiment with TK-10 renal, with OVCAR-5 ovarian, with U251 CNS, in the experiment on MCF7 breast, in the experiment on SR leukemia and in the experiment on K-562 leukemia was > 100 µM each time. For the same molecule, the TGI in the experiment with OVCAR-4 ovarian is 84.9 µM; with ACHN renal, 91.1 µM; in the experiment with NCI-H522 lung, > 100 µM; in the experiment on MDA-N, 76.6 µM.
Consider `CCCCc1c2c(nc3c1CCC/C3=C\c1ccccc1)C(=O)C(CN(C)C)CC2` (stereo not given), for which the TGI in the experiment with TK-10 renal worked out at 29.6 µM; with OVCAR-5 ovarian it was 33.8 µM; in the experiment with U251 CNS, 32.5 µM; in the experiment on MCF7 breast, 15.7 µM; with SR leukemia, 9.17 µM; in the experiment on K-562 leukemia, 21.5 µM. The TGI is 22.9 µM with OVCAR-4 ovarian; 29.5 µM in the experiment on ACHN renal; 30.1 µM with NCI-H522 lung; 21.1 µM with MDA-N; 28.3 µM in the experiment with SK-MEL-28 melanoma.
